This note sets out measurements from patent US6930113B2, “Nitrosated and nitrosylated phosphodiesterase inhibitors, compositions and methods of use” (Nitromed, Inc., priority 1996, dated 2005).

The experiment deals with Human corpus cavernosum tissue. Briefly: In vitro comparative relaxation responses (isometric tension of tissue strips in organ chambers). It is filed as cell-based. The following applies: doses of 10 μM and 30 μM; tissue contracted with phenylephrine 7×10^−7 M; compared with equimolar dipyridamole; FIG. 58. The text has this:
Human corpus cavernosum tissue biopsies were obtained at the time of penile prosthesis implantation from impotent men. The tissue was maintained in a chilled Krebs-bicarbonate solution prior to assay. The tissue was cut into strips of 0.3×0.3×1 cm and suspended in organ chambers for isometric tension measurement. Tissues were incrementally stretched until optimal isometric tension for contraction was obtained. Once this was achieved, the tissues were contracted with phenylephrine (7×10^−7 M) and once a stable contraction was achieved, the tissues were exposed to either dipyridamole or the compound of Example 1 (10^−6 to 3×10^−5 M) by cumulative additions to the chamber. At the end of the experiment, papaverine (10^−4 M) was added to obtain maximal relaxation. […] Data were expressed as the percent loss in tone from the phenylephrine-induced contraction (0%=phenylephrine contraction; −100%=tone after administration of papaverine).

As for `CC(C)(CC(=O)OCCN(CCOC(=O)CC(C)(C)SN=O)c1nc(N2CCCCC2)c2nc(N(CCOC(=O)CC(C)(C)SN=O)CCOC(=O)CC(C)(C)SN=O)nc(N3CCCCC3)c2n1)SN=O` [Example 1, 2,6-bis(Diethyl(3-methyl-3-(nitrosothio)butyric acid ester)amino)-4,8-dipiperidinopyrimido-[5,4-d]-pyrimidine], the “relaxing the phenylephrine-induced contraction (percent loss in tone from the phenylephrine-induced contraction)” value is listed as “more efficacious”.
